From patent US11807650B2, “NMDA receptor modulators and uses thereof” (Novartis AG, priority 2016, dated 2023)

Experiments:
[1] = target: T1, human GRIN1 (variant NR1-3) and GRIN2D expressed in HEK293 cells (Homo sapiens, UniProt O15399); assay: GluN2D PAM CIQ fluorescence assay (Fluo-8 calcium, FDSS 6000); type: cell-based; conditions: relative to CIQ (100 uM) = 100%, read-out: NR2D Percent CIQ Avg Max Measured Effect
T1 construct: GenScript (GRIN2D synthesis) SC115601; host or cells: HEK293
Protocol: GluN2D PAM CIO Flourescence AssayHEK293 cells were transfected to express human GRIN1 (variant NR1-3, Origene, SKU #: SC115601, Rockville, Md.) and GRIN2D (NCBI locus NM_000836, sequence optimized and synthesized by GenScript) and grown as an adherent monolayer at 37° C., 5% CO2 in DMEM/Ham's F12+10% FBS (Hyclone SH3007.03T in the presence of 2.5 mM ARL-15896 (AdooQ Bioscience, Irvine Calif.). To prepare the cells for an experiment, they were rinsed with Dulbecco's PBS (Ca^2+ and Mg^2+ free) and detached from the flask with TrypLE™ Express (Life Technologies, Carlsbad, Calif.) using the manufacturer's recommended methods. Cells collected from the flask were washed twice in Ca^2+/Mg^2+-free Hanks Balanced Salt Solution+20 mM HEPES (HBSS), and counted and assessed for viability with trypan blue. Washed cells were then dye-loaded by resuspending in Fluo-8/AM calcium sensitive dye plus Component B (AAT Bioquest, Sunnyvale, Calif.) diluted in HBSS. To allow cells to take up fluo-8 dye, they were incubated in the dark for 15 min at 37° C., followed by 30 min at 22-25° C. After dye-loading, cells were washed and resuspended in HBSS and plated in 384-well plates (Falcon 353962; Corning, Big Flats, N.Y.) at 20,000-30,000 cells/well in a final volume of 25 μl/well. The cell plates were centrifuged at 200×g, for 2 minutes at 21° C., to create a monolayer of cells at the bottom of the wells.
To initiate an assay, 10 μl of test compound or buffer was added to each well of the cell plate and pre-incubated for 10 minutes in the dark. After 10 minutes, the cell plate was placed in a FDSS 6000 plate reader (Hamamatsu Photonics, Middlesex, N.J.); baseline fluorescence readings were collected for 20 seconds. Next, 25 μl of agonist solution (3 μM glutamate, 3 μM glycine, and 1 mM Ca^2+ in HBSS) was added and the change in fluorescence was recorded for 3 minutes.
Results were calculated by comparing the effects of test compounds to that of the literature standard GluN2C/D PAM CIQ (100 uM). The increase in fluorescence in the presence of CIQ minus the increase induced by glutamate+glycine alone was set to 100%. Responses induced by compounds that were larger than gain the presence of the standard concentration of CIQ were greater than 100% and lesser responses were less than 100%.

[2] = target: T2, human GRIN1 (transcript variant NR1-3) and GRIN2D expressed in Xenopus oocytes (Homo sapiens, UniProt O15399); assay: NR2D oocyte potentiation assay (two-electrode voltage clamp); type: cell-based; conditions: 10 uM test compound; glutamate and glycine 10 μM each; holding potential −40 mV
T2 construct: GenScript (GRIN2D synthesis) SC115601; host or cells: Xenopus oocytes injected with cRNA (1 GluN1 : 2 GluN2)
In short: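 Xenopus oocytes were defolliculated with collagenase, then injected with 50 nL of cRNA encoding human GluN1 (NR1-3 variant) and GluN2D mixed 1:2 and kept 72 h at 16° C. Two-electrode voltage clamp at −40 mV recorded currents; after 10 μM glutamate plus 10 μM glycine reached plateau, test compound was added until a new plateau formed.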

T1 sequence (O15399 28-1336, other chains not shown): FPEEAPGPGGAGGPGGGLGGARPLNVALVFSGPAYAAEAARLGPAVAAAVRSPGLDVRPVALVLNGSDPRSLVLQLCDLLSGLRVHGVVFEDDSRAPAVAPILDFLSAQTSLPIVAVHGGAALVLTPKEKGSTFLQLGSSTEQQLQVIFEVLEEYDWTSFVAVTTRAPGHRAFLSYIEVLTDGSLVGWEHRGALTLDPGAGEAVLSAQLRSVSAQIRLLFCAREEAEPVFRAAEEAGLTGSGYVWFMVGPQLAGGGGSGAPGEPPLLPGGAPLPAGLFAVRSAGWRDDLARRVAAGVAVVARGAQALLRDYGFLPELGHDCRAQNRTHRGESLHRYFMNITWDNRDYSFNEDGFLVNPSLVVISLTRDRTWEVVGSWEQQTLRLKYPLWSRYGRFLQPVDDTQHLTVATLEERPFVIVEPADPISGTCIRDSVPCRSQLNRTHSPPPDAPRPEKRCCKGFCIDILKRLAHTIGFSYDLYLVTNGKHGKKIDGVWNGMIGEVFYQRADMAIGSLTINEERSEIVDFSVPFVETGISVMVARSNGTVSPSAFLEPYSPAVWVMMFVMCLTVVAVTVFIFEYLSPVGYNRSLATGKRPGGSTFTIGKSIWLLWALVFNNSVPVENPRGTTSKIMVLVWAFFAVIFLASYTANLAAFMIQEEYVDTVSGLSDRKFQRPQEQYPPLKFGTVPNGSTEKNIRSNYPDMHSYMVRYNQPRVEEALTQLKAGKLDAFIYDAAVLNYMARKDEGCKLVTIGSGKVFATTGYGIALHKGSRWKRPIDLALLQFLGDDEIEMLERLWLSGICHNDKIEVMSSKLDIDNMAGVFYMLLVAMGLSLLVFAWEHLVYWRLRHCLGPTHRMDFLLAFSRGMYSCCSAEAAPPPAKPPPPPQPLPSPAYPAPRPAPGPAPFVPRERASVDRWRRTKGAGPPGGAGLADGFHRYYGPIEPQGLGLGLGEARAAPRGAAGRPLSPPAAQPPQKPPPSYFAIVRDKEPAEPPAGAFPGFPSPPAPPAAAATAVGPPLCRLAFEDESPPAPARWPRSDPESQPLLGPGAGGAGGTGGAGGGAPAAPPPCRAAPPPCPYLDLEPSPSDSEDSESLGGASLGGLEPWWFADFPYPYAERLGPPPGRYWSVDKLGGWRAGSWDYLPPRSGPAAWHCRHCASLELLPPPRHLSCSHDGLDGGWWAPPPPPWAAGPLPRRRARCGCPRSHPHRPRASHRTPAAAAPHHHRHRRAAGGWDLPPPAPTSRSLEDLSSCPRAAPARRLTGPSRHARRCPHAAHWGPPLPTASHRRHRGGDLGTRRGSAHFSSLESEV
T2 sequence (O15399 28-1336, other chains not shown): as above

Row | Emax [1] | activation at 10 µM [2] | Structure (SMILES)
1 |  | > 1000% | COCOC[C@H]1CSc2nc(-c3cnc(C(C)(C)C)c(F)c3)c(C#N)c(=O)n2C1 [Example 171, (S)-8-(6-(tert-butyl)-5-fluoropyridin-3-yl)-3-((methoxymethoxy)methyl)-6-oxo-3,4-dihydro-2H,6H-pyrimido[2,1-b][1,3]thiazine-7-carbonitrile]
2 |  | > 1000% | COCOC[C@@H]1CSc2nc(-c3cnc(C(C)(C)C)c(F)c3)c(C#N)c(=O)n2C1 [Example 172, (R)-8-(6-(tert-butyl)-5-fluoropyridin-3-yl)-3-((methoxymethoxy)methyl)-6-oxo-3,4-dihydro-2H,6H-pyrimido[2,1-b][1,3]thiazine-7-carbonitrile]
3 | 100 to 200% |  | CC(C)(C)c1ccc(-c2nc3n(c(=O)c2C#N)CCCS3)s1 [Example 177, 8-(5-tert-butylthiophen-2-yl)-6-oxo-2H,3H,4H,6H-pyrimido[2,1-b][1,3]thiazine-7-carbonitrile]
4 |  | < 10% | N#Cc1c(-c2ccnc(C3CC3)n2)nc2n(c1=O)CCCS2 [Example 180, 8-(2-cyclopropylpyrimidin-4-yl)-6-oxo-2H,3H,4H,6H-pyrimido[2,1-b][1,3]thiazine-7-carbonitrile]
5 | 50 to 100% |  | Cc1ccc(-c2nc3n(c(=O)c2C#N)CCCS3)cc1 [Example 185, 8-(4-methylphenyl)-6-oxo-2H,3H,4H,6H-pyrimido[2,1-b][1,3]thiazine-7-carbonitrile]
6 | 10 to 50% |  | COc1ccc(-c2nc3n(c(=O)c2C#N)CCCS3)c(OC)c1 [Example 186, 8-(2,4-dimethoxyphenyl)-6-oxo-2H,3H,4H,6H-pyrimido[2,1-b][1,3]thiazine-7-carbonitrile]
7 | 10 to 50% |  | COc1ccccc1-c1nc2n(c(=O)c1C#N)CCCS2 [Example 188, 8-(2-methoxyphenyl)-6-oxo-2H,3H,4H,6H-pyrimido[2,1-b][1,3]thiazine-7-carbonitrile]
8 |  | 100 to 500% | COc1cc(C(C)(C)C)ccc1-c1nc2n(c(=O)c1C#N)CCCS2 [Example 193, 8-(4-tert-butyl-2-methoxyphenyl)-6-oxo-2H,3H,4H,6H-pyrimido[2,1-b][1,3]thiazine-7-carbonitrile]
9 | 10 to 50% |  | N#Cc1c(-c2ccc(-c3ccccc3)cc2F)nc2n(c1=O)CCCS2 [Example 194, 3,4-dihydro-8-(2-fluoro-4-phenylphenyl)-6-oxo-2H,6H-pyrimido[2,1-b][1,3]thiazine-7-carbonitrile]
10 | 100 to 200% |  | CC(C)(C)c1ccc(-c2nc3n(c(=O)c2C#N)CC2(CC2)CS3)cc1 [Example 203, 8′-(4-tert-butylphenyl)-6′-oxo-4′,6′-dihydro-2′H-spiro[cyclopropane-1,3′-pyrimido[2,1-b][1,3]thiazine]-7′-carbonitrile]
11 | 100 to 200% |  | CSc1ccc(-c2nc3n(c(=O)c2C#N)CCS3)cc1 [Example 207, 7-[4-(methylsulfanyl)phenyl]-5-oxo-2H,3H,5H-[1,3]thiazolo[3,2-a]pyrimidine-6-carbonitrile]
12 | 10 to 50% |  | CC(C)(C)c1ccc(-c2nc3scc(N)n3c(=O)c2C#N)cc1 [Example 210, 3-amino-7-(4-tert-butylphenyl)-5-oxo-5H-thiazolo[3,2-a]pyrimidine-6-carbonitrile]

The next lines start with the compound.

Row | Structure (SMILES) | Emax [1] | activation at 10 µM [2]
13 | CC(C)(C)c1ncc(-c2nc3ccccn3c(=O)c2C#N)cn1 [Example 20, 2-(2-(tert-butyl)pyrimidin-5-yl)-4-oxo-4H-pyrido[1,2-a]pyrimidine-3-carbonitrile] | 100 to 200% | 100 to 500%
14 | CC(C)(C)c1ccc(-c2nc3n(c(=N)c2C#N)CCCS3)cc1 [Example 36, 8-(4-(tert-butyl)phenyl)-6-imino-3,4-dihydro-2H,6H-pyrimido[2,1-b][1,3]thiazine-7-carbonitrile] | 100 to 200% | 500 to 1000%
15 | C/N=c1/c(C#N)c(-c2ccc(C(C)(C)C)cc2)nc2n1CCCS2 [Example 37, (Z)-8-(4-(tert-butyl)phenyl)-6-(methylimino)-3,4-dihydro-2H,6H-pyrimido[2,1-b][1,3]thiazine-7-carbonitrile] | > 200% | 500 to 1000%
16 | CC(C)(C)c1ccc(-c2nc3n(c(=N)c2C#N)CCCS3)cn1 [Example 38, 8-(6-(tert-butyl)pyridin-3-yl)-6-imino-3,4-dihydro-2H,6H-pyrimido[2,1-b][1,3]thiazine-7-carbonitrile] | 100 to 200% | > 1000%
17 | CC1CSc2nc(-c3cnc(C(C)(C)C)nc3)c(C#N)c(=N)n2C1 (centres unmarked) [Example 39, 8-(2-(tert-butyl)pyrimidin-5-yl)-6-imino-3-methyl-3,4-dihydro-2H,6H-pyrimido[2,1-b][1,3]thiazine-7-carbonitrile] | > 200% | > 1000%
18 | CN(C)C(=O)/N=c1/c(C#N)c(-c2ccc(C(C)(C)C)cc2)nc2n1CCCS2 [Example 42, (Z)-3-(8-(4-(tert-butyl)phenyl)-7-cyano-3,4-dihydro-2H,6H-pyrimido[2,1-b][1,3]thiazin-6-ylidene)-1,1-dimethylurea] | 100 to 200% | 100 to 500%
19 | CC(C)(C)c1ccc(-c2nc3n(/c(=N\C(=O)C(F)(F)F)c2C#N)CCCS3)cc1 [Example 43, (Z)—N-(8-(4-(tert-butyl)phenyl)-7-cyano-3,4-dihydro-2H,6H-pyrimido[2,1-b][1,3]thiazin-6-ylidene)-2,2,2-trifluoroacetamide] | 10 to 50% | 100 to 500%
20 | C[C@H]1CSc2nc(-c3ccc(C(C)(C)C)nc3)c(C#N)c(=O)n2C1 [Example 44, (R)-8-(6-(tert-butyl)pyridin-3-yl)-3-methyl-6-oxo-3,4-dihydro-2H,6H-pyrimido[2,1-b][1,3]thiazine-7-carbonitrile] | 100 to 200% | 100 to 500%
21 | C[C@@H]1CSc2nc(-c3ccc(C(C)(C)C)nc3)c(C#N)c(=O)n2C1 [Example 45, (S)-8-(6-(tert-butyl)pyridin-3-yl)-3-methyl-6-oxo-3,4-dihydro-2H,6H-pyrimido[2,1-b][1,3]thiazine-7-carbonitrile] | > 200% | > 1000%
22 | N#Cc1c(-c2ccc(C(F)(F)F)nc2)nc2n(c1=O)CCCS2 [Example 48, 6-oxo-8-(6-(trifluoromethyl)pyridin-3-yl)-3,4-dihydro-2H,6H-pyrimido[2,1-b][1,3]thiazine-7-carbonitrile] | 10 to 50% | < 10%
23 | CC(=O)NC[C@@H]1CSc2nc(-c3cnc(C(C)(C)C)c(F)c3)c(C#N)c(=O)n2C1 [Example 169, (S)-N-((8-(6-(tert-butyl)-5-fluoropyridin-3-yl)-7-cyano-6-oxo-3,4-dihydro-2H,6H-pyrimido[2,1-b][1,3]thiazin-3-yl)methyl)acetamide] |  | > 1000%
24 | COCOCC1CSc2nc(-c3cnc(C(C)(C)C)c(F)c3)c(C#N)c(=O)n2C1 (centres unmarked) [Example 170, 8-(6-(tert-butyl)-5-fluoropyridin-3-yl)-3-((methoxymethoxy)methyl)-6-oxo-3,4-dihydro-2H,6H-pyrimido[2,1-b][1,3]thiazine-7-carbonitrile] |  | > 1000%
25 | CC(C)(C)OCC1CSc2nc(-c3cnc(C(C)(C)C)c(F)c3)c(C#N)c(=O)n2C1 (centres unmarked) [Example 173, 3-(tert-butoxymethyl)-8-(6-(tert-butyl)-5-fluoropyridin-3-yl)-6-oxo-3,4-dihydro-2H,6H-pyrimido[2,1-b][1,3]thiazine-7-carbonitrile] |  | 10 to 100%
